Measurements reported in patent publication US20240343727A1, “PYRIDAZINONE OR PYRIDINONE COMPOUNDS, PREPARATION METHODS AND USES THEREOF” (InventisBio Co., Ltd., priority 2021, published 2024).

Tests used:
[1] = tested on: tumor; conditions: according to the description in clinicaltrials.gov (NCT04053673); cited from earlier work
[2] = tested on: NCI-H1373 cells; experiment: Inhibition of cancer cell growth in NCI-H1373 cells (Cell-titer Glo, 6 days); format: cell-based; conditions: Homo sapiens, NCI-H1373, 144 h, read-out: H1373 Cell Proliferation IC50
Procedure: Biological Assay Example B: Inhibition of cancer cell growth in NCI-H1373 cells by PARP7 inhibitors
NCI-H1373 cells were cultured in RPMI 1640 medium supplemented with 10% fetal bovine serum, 100 U/mL penicillin and 100 ug/mL streptomycin in a 37° C., 5% CO2 incubator. Fifteen hundred cells were seeded into each well of 96-well plate in RPMI1640 medium containing 10% fetal bovine serum and incubated overnight. Serial diluted compounds for each well were added at a final DMSO concentration of 0.5% and a day zero plate was collected for analysis. Compounds were incubated with the cells for 6 days. Cell growth was assessed using Cell-titer Glo reagent (Promega #G^7572). The luminescence signal was collected on Tecan Spark plate reader. Cell growth is determined by correcting for the cell count on day zero. Inhibition rate is calculated with the formula of % inhibition=100*(DMSO control-compounds)/(DMSO control-Blank). Cell growth inhibition IC50 is calculated with the equation of Y-Bottom+ (Top-Bottom)/(1+10^((LogIC50−X) *Hill Slope)).

[3] = biological target: T1, PARP7 (Homo sapiens, UniProt Q7Z3E1); experiment: PARP7 TR-FRET assay (binding, displacement of biotinylated Probe A); conditions: 6 nM PARP7, 2 nM Probe A, 25° C., 30 min
T1 sequence (Q7Z3E1 1-657): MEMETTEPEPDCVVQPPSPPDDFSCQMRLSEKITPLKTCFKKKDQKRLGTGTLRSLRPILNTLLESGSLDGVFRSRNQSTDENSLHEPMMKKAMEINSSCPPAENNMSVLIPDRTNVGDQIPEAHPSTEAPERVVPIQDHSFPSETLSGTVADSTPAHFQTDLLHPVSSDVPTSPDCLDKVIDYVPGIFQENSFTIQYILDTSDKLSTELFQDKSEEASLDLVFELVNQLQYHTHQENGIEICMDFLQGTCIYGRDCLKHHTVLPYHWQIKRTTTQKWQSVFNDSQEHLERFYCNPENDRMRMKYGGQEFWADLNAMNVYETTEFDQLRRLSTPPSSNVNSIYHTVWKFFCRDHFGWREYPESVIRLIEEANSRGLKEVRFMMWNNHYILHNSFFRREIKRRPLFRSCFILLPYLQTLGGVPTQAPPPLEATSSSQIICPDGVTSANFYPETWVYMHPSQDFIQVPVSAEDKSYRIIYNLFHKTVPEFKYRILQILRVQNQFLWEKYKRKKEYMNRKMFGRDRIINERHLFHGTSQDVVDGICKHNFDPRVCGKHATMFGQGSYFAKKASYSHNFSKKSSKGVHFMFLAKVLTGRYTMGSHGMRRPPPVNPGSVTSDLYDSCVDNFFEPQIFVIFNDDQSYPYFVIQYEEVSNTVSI
How it was run: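 His-tagged PARP7 at 6 nM was preincubated with compound and 2 nM biotinylated Probe A for 30 min at 25° C (HEPES pH 8.0, NaCl, BSA, DTT, Tween20). Europium-streptavidin/ULight-anti-His FRET was read as the 665/615 nm ratio after a further 30 min. IC50 was fitted from % inhibition normalised to vehicle and blank.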

| SMILES | IC50 [2] [nM] | IC50 [3] [nM] | tumor growth in animal studies [1] |
| --- | --- | --- | --- |
| C[C@@H](COCCC(=O)N1CCN(c2ncc(C(F)(F)F)cn2)CC1)Nc1cn[nH]c(=O)c1C(F)(F)F [RBN2397] | – | – | inhibit tumor growth |
| Cc1cccc2c(N3CCOC(CC(=O)N4CCN(c5ncc(C(F)(F)F)cn5)CC4)C3)n[nH]c(=O)c12 (single isomer, unassigned) [Compound 101] | > 1000 | 100 to 1000 | – |
| O=C(CC[C@@H]1CCCN1c1n[nH]c(=O)c2ccccc12)N1CCN(c2ncc(C(F)(F)F)cn2)CC1 [Compound 48] | < 100 | < 100 | – |
| O=C(c1cccc(Oc2n[nH]c(=O)c(C(F)(F)F)c2CO)c1)N1CCN(c2ncc(C(F)(F)F)cn2)CC1 [Compound 71] | > 1000 | 100 to 1000 | – |

Further lines, with some results ahead:

| IC50 [2] [nM] | IC50 [3] [nM] | SMILES | tumor growth in animal studies [1] |
| --- | --- | --- | --- |
| > 1000 | < 100 | CNC(=O)c1ccc2c(c1)N(c1cc(C(F)(F)F)c(=O)[nH]n1)CC(CC(=O)N1CCN(c3ncc(C(F)(F)F)cn3)CC1)O2 (single isomer, unassigned) [Compound 324] | – |
| 100 to 1000 | < 100 | Cc1c(Oc2cccc(C(=O)N3CCN(c4ncc(C(F)(F)F)cn4)CC3)c2)n[nH]c(=O)c1C(F)(F)F [Compound 15] | – |
| > 1000 | < 100 | N#Cc1ccc2c(c1)N(c1cc(C(F)(F)F)c(=O)[nH]n1)CC(CC(=O)N1CCN(c3ccc(C(F)(F)F)cn3)CC1)O2 (single isomer, unassigned) [Compound 346] | – |
